Measured values published in patent US8114863B2, “Compounds comprising short aminoalcohol chains and metal complexes for medical imaging” (Guerbet, priority 2005, dated 2012).

Experiments:
[1] = Osmolality (Wescor 5220 tonometer); type: physicochemical; conditions: at administration dose of the product in man (500 mM; Gadovist 1000 mM)
[2] = Relaxivity measurements (r1 from relaxation times T1/T2, Minispec 120); type: physicochemical
Experimental: […] The longitudinal relaxation time T1 is measured using an inversion recovery sequence and the transverse relaxation time T2 is measured by a CPMG technique.
The relaxation rates R1 (=1/T1) and R2 (=1/T2) were calculated for different total metal concentrations (varying from 0.1×10^−3 to 1×10^−3 mol/l) in aqueous solution at 37° C. The correlation between R1 or R2 as a function of the concentration is linear and the slope represents the relaxivity r1 (RUC) or r2 (R2/C) expressed as (1/second)×(1/mmol/l), i.e. mM^−1·s^−1.
The compounds were prepared in different media: water, NaCl, citrate, phosphate, carbonate, cocktail of ions.

C6 glioma = experiment: In vivo MRI imaging study, detection of C6 glioma in rat; conditions: 0.1 mmol/kg, 2.35 T
Experimental: Compounds II (example 2) was compared to Dotarem® ans MultiHance(® for the detection of C6 glioma in rat (n=6/product). Each animal received all the three products at the same dose (0.1 mmol/kg) in a random order. A minimal delay of 4 hours has been respected between the injections in order to avoid remaining contrast from the previous injection. Enhancement was follow-up during 30 min with a T1w-Spin Echo sequence (TR/TE=498/14.2 ms, FOV=4×4 cm2, slice thickness 2 mm, interslice distance 3 mm, 192×192 matrix, 2 accumulation) on a 2.35 T system (BioSpec 24/40, Bruker, Germany). Enhancement of the lesions have been quantitatively (ROIs) and qualitatively (blinded cotation) evaluated. […] However among the three contrast agents, compound II induced a 2 fold-more pronounced contrast between the lesion and the healthy brain.

Question: For `O=C([O-])CN1CCN(CC(=O)[O-])CCN([C@H](CO)[C@H](O)CO)CCN(CC(=O)[O-])CC1.[Gd+3]` (racemic) [Gadovist ® (1M)], which “Osmality (mOsm/kg)” value [1] is on record?
Answer: The value was 1400 mOsm/kg.

Question: Which “Relaxivity r1 at 60 MHz in water” value [2] does the source give for `CNC[C@H](O)[C@@H](O)[C@H](O)[C@H](O)CO.CNC[C@H](O)[C@@H](O)[C@H](O)[C@H](O)CO.O=C([O-])CN(CCN(CC(=O)[O-])CC(=O)O)CCN(CC(=O)[O-])CC(=O)O.[Gd+3]` [Magnevist ®] here?
Answer: Its value is 3.5 mM⁻¹ s⁻¹.

Question: And the “Osmality (mOsm/kg)” value [1]?
Answer: Its value is 1950 mOsm/kg.

Question: What does the source list for `O=C(CCCC(C(=O)O)N1CCN(C(CCCC(=O)NCC(O)CO)C(=O)O)Cc2cccc(n2)CN(C(CCCC(=O)NCC(O)CO)C(=O)O)CC1)NCC(O)CO` (stereo not shown) [complex 7]?
Answer: relaxivity at 20 MHz ([2]; 20 MHz): 14.7 mM^−1s^−1 Gd^−1; relaxivity at 40 MHz ([2]; 40 MHz): 12.8 mM^−1s^−1 Gd^−1; relaxivity at 300 MHz ([2]; 300 MHz): 10.4 mM^−1s^−1 Gd^−1

Question: For `CNC[C@H](O)[C@@H](O)[C@H](O)[C@H](O)CO.CNC[C@H](O)[C@@H](O)[C@H](O)[C@H](O)CO.O=C([O-])CN(CCN(CC(=O)[O-])CC(=O)O)CCN(CC(=O)O)C(COCc1ccccc1)C(=O)[O-].[Gd+3]` (stereo not shown) [MultiHance], which “depiction of the lesions” value (C6 glioma) is on record?
Answer: Its value is “All the lesions have been depicted”.

Question: For `O=C(O)C(CCO)N1CCN(C(CCO)C(=O)O)Cc2cccc(n2)CN(C(CCO)C(=O)O)CC1` (stereo not shown) [Comparative Example 9], which relaxivity ([2]; field not stated) is on record?
Answer: Its relaxivity is 6.

Question: And the “Relaxivity r1 in water (mM − 1s − 1) at 0.5 T” value [2]?
Answer: Its value is 6 mM − 1s − 1.

Question: With `O=C(O)CCC(C(=O)O)N1CCN(C(CCC(=O)O)C(=O)O)CCN(C(CCC(=O)O)C(=O)O)CCN(C(CCC(=O)O)C(=O)O)CC1` (stereo not shown) as the compound, how does the “Relaxivity r1 in water (mM − 1s − 1) at 0.5 T” value [2] read?
Answer: Its value is 6.2 mM − 1s − 1.

Question: For `CNC[C@H](O)[C@@H](O)[C@H](O)[C@H](O)CO.O=C([O-])CN1CCN(CC(=O)[O-])CCN(CC(=O)O)CCN(CC(=O)[O-])CC1.[Gd+3]` [Dotarem ®], which “Relaxivity r1 at 60 MHz in water” value [2] is on record?
Answer: Its value is 3.5 mM⁻¹ s⁻¹.

Question: And the “Osmality (mOsm/kg)” value [1]?
Answer: The value was 1350 mOsm/kg.

Question: And the “depiction of the lesions” value (C6 glioma)?
Answer: Its value is “All the lesions have been depicted”.
